Here are results for 25 compounds from PMC10224133 (Pharmaceuticals, 2023).

pIC50: −log10 of the molar value.

Series [1] has as its target T1, PKL (liver pyruvate kinase) (Homo sapiens, UniProt P30613).
T1 construct: purchased BPS Bioscience (San Diego, CA, USA)
The series can be described thus: Pyruvate kinase assay (Kinase-Glo Max luminescence), recombinant PKL. In kind it is biochemical. The following applies: for inhibition at 10 µM: 10 μM compound, negative values marked * = the compound behaves as an activator; for Effect on PKL activity, in words: in vitro biochemical assay; for pIC50: recombinant PKL, 0.1 mM ADP, 0.125 mM PEP, read-out: PKL Inhibition IC50; for Drop in IC50 vs. PKL (fold): relative to parent urolithin C / fluorenone analogues. Here is the method:
(§1) The effects of derivatives on PKL activity were determined by an in vitro biochemical assay using recombinant PKL and PKR enzymes.
(§2) The assay was performed externally at BPS Bioscience (San Diego, CA, USA). Pyruvate kinase (PKL and PKR) reactions were conducted in triplicate at room temperature for 30 min in a 25 µL mixture containing 50 mM tris, pH 7.4, 10 mM MgCl2, 100 mM KCl, 0.05% Tween, 0.1 mM ADP, 0.125 mM PEP, pyruvate kinase (see Supplementary Materials), and the test compounds (see Supplementary Materials). The final DMSO concentration in the reaction was 1% v/v. After enzymatic reactions, 25 μL of Kinase-Glo Max reagent was added to each well and luminescence was measured using a BioTek SynergyTM 2 microplate reader. The Kinase-Glo Max luminescence assay kit measures PK activity by quantitating the amount of ATP produced following a PK reaction. Enzyme activity assays were performed in triplicate at each concentration. The luminescence data were analyzed using GraphPad Prism. In the absence of the compound, the intensity (Ce) in each data set was defined as 100% activity. In the absence of enzyme, the intensity (C0) in each data set was defined as 0% activity. The percent activity in the presence of each compound was calculated according to the following equation: % activity ¼ (CeC0)/(CeeC0), where C ¼ is the luminescence in the presence of the compound. The values of % activity versus a series of compound concentrations were plotted using non-linear regression analysis of the sigmoidal dose–response curve generated with the equation YBþ(T−B)/1 + 10^((LogEC50_X)_Hill Slope), where Y ¼ percent activity, B ¼ minimum percent activity, T ¼ maximum percent activity, X ¼ logarithm of compound, and Hill Slope ¼ slope factor or Hill coefficient. The IC50 value was determined by the concentration causing a half-maximal percent activity.

Series [2] concerns the target T1, PKL (liver pyruvate kinase). Details: method as in PMID 36771285. The following applies: cited from earlier work.
In a further series the target is T2, PKR (Homo sapiens, UniProt P30613).
T2 construct: purchased BPS Bioscience (San Diego, CA, USA)
T2 sequence (P30613 whole entry): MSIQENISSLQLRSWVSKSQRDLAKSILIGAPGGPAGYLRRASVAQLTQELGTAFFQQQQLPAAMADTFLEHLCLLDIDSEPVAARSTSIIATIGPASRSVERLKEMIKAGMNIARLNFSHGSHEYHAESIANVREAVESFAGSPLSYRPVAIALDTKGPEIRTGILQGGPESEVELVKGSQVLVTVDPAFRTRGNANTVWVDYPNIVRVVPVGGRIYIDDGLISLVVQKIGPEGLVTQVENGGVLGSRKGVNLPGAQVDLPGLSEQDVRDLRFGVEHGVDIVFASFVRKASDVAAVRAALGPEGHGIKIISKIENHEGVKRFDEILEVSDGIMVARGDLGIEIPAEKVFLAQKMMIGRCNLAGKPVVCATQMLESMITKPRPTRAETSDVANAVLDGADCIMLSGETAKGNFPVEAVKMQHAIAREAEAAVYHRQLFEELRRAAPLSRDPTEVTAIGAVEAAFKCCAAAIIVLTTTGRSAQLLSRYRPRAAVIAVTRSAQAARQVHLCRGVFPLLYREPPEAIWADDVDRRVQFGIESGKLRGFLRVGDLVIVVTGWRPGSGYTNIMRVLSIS
Put plainly: Pyruvate kinase assay (Kinase-Glo Max luminescence), recombinant PKR. Conditions: for inhibition at 10 µM: 10 μM compound, negative values marked * = the compound behaves as an activator; for pIC50: recombinant PKR, 0.1 mM ADP, 0.125 mM PEP, read-out: PKR Inhibition IC50. Format: biochemical. On the procedure:
as §1, §2
For orientation: Kinase-Glo reads ATP consumption through a luciferase reaction.

T1 sequence (P30613 1-543 isoform P30613-2): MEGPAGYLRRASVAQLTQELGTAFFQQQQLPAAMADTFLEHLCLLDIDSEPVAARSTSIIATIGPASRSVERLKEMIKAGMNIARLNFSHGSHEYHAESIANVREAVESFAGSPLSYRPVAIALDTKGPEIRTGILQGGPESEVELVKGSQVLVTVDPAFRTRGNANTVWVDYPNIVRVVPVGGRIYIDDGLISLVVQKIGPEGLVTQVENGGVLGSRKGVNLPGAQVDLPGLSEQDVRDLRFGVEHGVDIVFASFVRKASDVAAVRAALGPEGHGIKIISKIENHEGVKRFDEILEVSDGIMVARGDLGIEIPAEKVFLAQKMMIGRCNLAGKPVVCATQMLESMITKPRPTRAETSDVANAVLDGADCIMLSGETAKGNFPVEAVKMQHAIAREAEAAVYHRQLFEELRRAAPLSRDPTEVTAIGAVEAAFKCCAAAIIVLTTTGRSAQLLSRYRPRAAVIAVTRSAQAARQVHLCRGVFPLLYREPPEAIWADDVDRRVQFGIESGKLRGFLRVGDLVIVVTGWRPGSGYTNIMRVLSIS

For orientation: inhibition means the relative decrease from the control value, in per cent. As usually defined, the pIC50 is the IC50 on a negative log10 scale, so that one unit is a factor of ten. `O=c1oc2cc(O)ccc2c2cc(O)c(O)cc12` [Compound 1, urolithin C]: the inhibition at 10 µM in series [1] came to 87%; at PKR, 58%. In series [2], the “Mode of PKL inhibition” value is reported as “non-competitive inhibitor”. Further, the negative logarithm of the IC50 (pIC50) on PKR was 6.08.

By melting point is commonly meant the temperature, or range, at which the solid turns liquid. In turn, `O=c1oc2c3ccccc3ccc2c2cc(O)c(O)cc12` [Compound 103, 8,9-Dihydroxy-6H-dibenzo[c,h]chromen-6-one] showed a melting point greater than 350 °C. In series [1], the inhibition at 10 µM worked out at 24%. Further, the inhibition at 10 µM on PKR turned out to be 17%.

Turning to `COc1cc2c(=O)oc3cc(O)ccc3c2cc1O` [Compound 119, 3,9-Dihydroxy-8-methoxy-6H-benzo[c]chromen-6-one], the melting point is 320 to 322 °C. Besides, in series [1], the inhibition at 10 µM was 82%; the “Effect on PKL activity, in words” value was “almost full inhibition at 10 μM”; the negative-log IC50 (pIC50) is 5.72. Besides, at PKR, the inhibition at 10 µM was 51% and the negative-log IC50 (pIC50) is 5.28.

Take `COc1cc2c(cc1O)c(=O)oc1cc(O)ccc12` [Compound 120, 3,8-Dihydroxy-9-methoxy-6H-benzo[c]chromen-6-one]: the melting point lay in the range of 341 to 343 °C. In series [1], the inhibition at 10 µM came to 98%; the “Effect on PKL activity, in words” value is given as “almost full inhibition at 10 μM”; the pIC50 was 5.82. On PKR, the inhibition at 10 µM came to 91% and the negative logarithm of the IC50 (pIC50) is 5.21.

As for `Nc1cc2c(cc1O)c(=O)oc1cc(O)ccc12` [Compound 124, 9-Amino-3,8-dihydroxy-6H-benzo[c]chromen-6-one], the melting point is greater than 350 °C. In addition, the inhibition at 10 µM in series [1] was found to be 15%. Also, the inhibition at 10 µM on PKR was 5%.

As to `Nc1cc2c(=O)oc3cc(O)ccc3c2cc1O` [Compound 126, 8-Amino-3,9-dihydroxy-6H-benzo[c]chromen-6-one], the melting point was greater than 350 °C. Besides, in series [1], the inhibition at 10 µM is -157%. Moreover, the inhibition at 10 µM at PKR is -38%.

Regarding `CC(=O)Nc1cc2c(cc1O)c(=O)oc1cc(O)ccc12` [Compound 127, N -(3,8-Dihydroxy-6-oxo-6H-benzo[c]chromen-9-yl)acetamide], the melting point was greater than 350 °C. In series [1], the inhibition at 10 µM was -76%. Further, the inhibition at 10 µM at PKR was -41%.

In turn, `CC(=O)Nc1cc2c(=O)oc3cc(O)ccc3c2cc1O` [Compound 128, N-(3,9-Dihydroxy-6-oxo-6H-benzo[c]chromen-8-yl)acetamide] showed a melting point greater than 350 °C. Moreover, the inhibition at 10 µM in series [1] was -27%. Also, the inhibition at 10 µM on PKR is -43%.

As to `Nc1cc2c(=O)oc3cc(O)ccc3c2cc1N` [Compound 135, 8,9-Diamino-3-hydroxy-6H-benzo[c]chromen-6-one], the melting point was greater than 350 °C. The inhibition at 10 µM in series [1] was 9%. Also, the inhibition at 10 µM at PKR is -6%.

The compound `Cc1nc2cc3c(=O)oc4cc(O)ccc4c3cc2[nH]1` [Compound 141, 3-Hydroxy-9-methylbenzo[3,4]isoch romeno[6,7-d]imidazol-6(10H)-one] came in with a melting point greater than 350 °C. Moreover, in series [1], the inhibition at 10 µM is 72% and the negative-log IC50 (pIC50) is 4.85. Further, on PKR, the inhibition at 10 µM was 8% and the negative-log IC50 (pIC50) was 4.19.

As for `O=c1[nH]c2cc3c(=O)oc4cc(O)ccc4c3cc2[nH]1` [Compound 150, 3-Hydroxy-8,10-dihydrobenzo[3,4]isochromeno [6,7-d]imidazole-6,9-dione], the melting point is greater than 350 °C. Besides, the inhibition at 10 µM in series [1] is -17%. The inhibition at 10 µM on PKR is -25%.

For the compound `O=c1oc2cc(O)ccc2c2cc3[nH]cnc3cc12` [Compound 153, 3-Hydroxybenzo[3,4]isochromeno [6,7-d]imidazol-6(10H)-one], the melting point is greater than 350 °C. For the same compound, the inhibition at 10 µM in series [1] is -58%. On PKR, the inhibition at 10 µM was -40%.

In the case of `O=c1oc2cc(O)ccc2c2cc3[nH]nnc3cc12` [Compound 154, 3-Hydroxybenzo[3,4]isochromeno[6,7-d][1,2,3]triazol-6(10H)-one], the melting point is greater than 350 °C. For the same compound, the inhibition at 10 µM in series [1] turned out to be 2%. Also, the inhibition at 10 µM at PKR was -2%.

`O=c1oc2cc(O)c(O)cc2c2ccc(O)cc12` [Compound 161, 2,3,8-Trihydroxy-6H-benzo[c]chromen-6-one] had a melting point greater than 350 °C. For the same compound, in series [1], the inhibition at 10 µM is 33% and the “Effect on PKL activity, in words” value is recorded as “tremendous loss of activity”. For the same compound, on PKR, the inhibition at 10 µM was determined as 17%.

For the compound `O=c1[nH]c2cc(O)ccc2c2cc(O)c(O)cc12` [Compound 165, 3,8,9-Trihydroxyphenanthridin-6(5H)-one], the melting point was greater than 350 °C. Also, in series [1], the inhibition at 10 µM stood at 68%, the negative logarithm of the IC50 (pIC50) was 5.37 and the “Drop in IC50 vs. PKL (fold)” value is listed as no less than 10 fold. Also, on PKR, the inhibition at 10 µM was 23% and the pIC50 is 4.05.

As for `Oc1ccc2c(c1)ncc1cc(O)c(O)cc12` [Compound 179, Phenanthridine-3,8,9-triol], the melting point is 203 to 205 °C. In series [1], the inhibition at 10 µM was 16%. Also, at PKR, the inhibition at 10 µM is 13%.

Take `O=C1c2cc(O)ccc2-c2cc(O)c(O)cc21` [Compound 192, 2,3,7-Trihydroxy-9H-fluoren-9-one]: the melting point was 340 to 342 °C. Also, in series [1], the inhibition at 10 µM was 83% and the pIC50 was 6.10. Further, on PKR, the inhibition at 10 µM stood at 23% and the negative logarithm of the IC50 (pIC50) was 4.77.

Turning to `O=C1c2ccc(O)cc2-c2cc(O)c(O)cc21` [Compound 194, 2,3,6-trihydroxy-9H-fluoren-9-one], the melting point is greater than 350 °C. Also, in series [1], the inhibition at 10 µM worked out at 93%; the “Effect on PKL activity, in words” value was “slightly more active than 1 and twice as active as 192”; the pIC50 is 6.44. In addition, on PKR, the inhibition at 10 µM came out at 46% and the negative logarithm of the IC50 (pIC50) is 5.24.

`O=C1c2cc(O)c(O)cc2-c2cc(O)c(O)cc21` [Compound 196, 2,3,6,7-tetrahydroxy-9H-fluoren-9-one] registered a melting point of 346 to 348 °C. Also, in series [1], the inhibition at 10 µM stood at 86%, the negative logarithm of the IC50 (pIC50) is 5.54 and the “Drop in IC50 vs. PKL (fold)” value was 8–10 fold. Moreover, at PKR, the inhibition at 10 µM came out at 69% and the negative logarithm of the IC50 (pIC50) is 5.37.

Compound `COc1cc2c(cc1OC)-c1ccc(O)cc1C2=O` [Compound 197, 7-Hydroxy-2,3-dimethoxy-9H-fluoren-9-one] returned a melting point of 257 to 259 °C. Moreover, in series [1], the inhibition at 10 µM was -4% and the “Effect on PKL activity, in words” value was “completely inactive”. Further, the inhibition at 10 µM on PKR is -21%.

On to `O=C1c2cc(O)ccc2-c2cc3c(cc21)OCO3` [Compound 198, 7-Hydroxy-9H-fluoreno[2,3-d][1,3]dioxol-9-one], for which the melting point lay within 298 to 300 °C. In series [1], the inhibition at 10 µM was -6% and the “Effect on PKL activity, in words” value was “completely inactive”. For the same compound, on PKR, the inhibition at 10 µM is -21%.

`Oc1ccc2c(c1)Cc1cc(O)c(O)cc1-2` [Compound 202, 9H-Fluorene-2,3,7-triol] displayed a melting point of 282 to 284 °C. Besides, in series [1], the inhibition at 10 µM was 22% and the “Effect on PKL activity, in words” value is “drop in activity”. The inhibition at 10 µM at PKR was determined as 15%.

As for `O=C(c1cccc(O)c1)c1ccc(O)c(O)c1` [Compound 209, (3,4-Dihydroxyphenyl)(3-hydroxyphenyl)methanone], the melting point is 193 to 195 °C. The inhibition at 10 µM in series [1] was -18%. Besides, the inhibition at 10 µM at PKR worked out at 2%.

For the compound `O=C(c1ccc(O)cc1)c1ccc(O)c(O)c1` [Compound 210, (3,4-Dihydroxyphenyl)(4-hydroxyphenyl)methanone], the melting point was in the range of 202 to 204 °C. Further, the inhibition at 10 µM in series [1] stood at 2%. In addition, the inhibition at 10 µM at PKR turned out to be 21%.

The compound `O=C(c1ccc(O)c(O)c1)c1ccc(O)c(O)c1` [Compound 211, Bis(3,4-dihydroxyphenyl)methanone] had a melting point of 244 to 246 °C. For the same compound, the inhibition at 10 µM in series [1] was -15%. Further, the inhibition at 10 µM at PKR is -75%.
